Results on six compounds are retold here after patent publication US4122088A, “Dicarboxyphenyl substituted bis-sulfonylimino dibenzodithiazepine tetroxides” (American Cyanamid Company, priority 1977, dated 1978).

Assay [1] deals with human C1. As to the kind of experiment: Test, Code 026 (C1 inhibitor): ability of activated human C1 to destroy fluid phase human C2 in the presence of C4. The class given is biochemical. Particulars: serial dilution assay, two-fold dilutions; higher well number indicates higher activity. The text has this: (§1) An active inhibitor protects C2 from C1 and C4; (ii) Test, Code 035 (C3-C9 inhibitor) - This test determines the ability of the late components of human complement (C3-C9) to lyse EAC 142 in the presence of appropriate dilutions of the test compound. An active inhibitor protects EAC 142 from lysis by human C3-C9; (iii) Test, Code 036 (C-Shunt inhibitor) - In this test human erythrocytes rendered fragile are lysed in autologous serum via the shunt pathway activated by cobra venom factor in the presence of appropriate dilutions of the test compound. Inhibition of the shunt pathway results in failure of lysis; (iv) Forssman Vasculitis Test -- Here, the well known complement dependent lesion, Forssman vasculitis, is produced in guinea pigs by intradermal injection of rabbit anti-Forssman antiserum. […]

In assay [2] the test system is shunt pathway. Description: Test, Code 036 (C-Shunt inhibitor): lysis of human erythrocytes in autologous serum via the shunt pathway activated by cobra venom factor. In kind it is cell-based. The note with it: serial dilution assay, two-fold dilutions; higher well number indicates higher activity.
From the text: as §1

Assay [3] relates to late components of human complement (C3-C9). As to the kind of experiment: Test, Code 035 (C3-C9 inhibitor): lysis of EAC 142 by late components of human complement. In kind it is cell-based. Set-up: key: Negative. Particulars: serial dilution assay, two-fold dilutions; higher well number indicates higher activity.
From the text: as §1

The test system of assay [4] is whole complement. Description: Complement Level Reduction Test: whole complement in serum of dosed guinea pigs, capillary tube assay. The class given is in vivo. Particulars: Cavia porcellus, ip, guinea pig, i.p., versus simultaneous controls. The text has this:
An active inhibitor protects C2 from C1 and C4; (ii) Test, Code 035 (C3-C9 inhibitor) - This test determines the ability of the late components of human complement (C3-C9) to lyse EAC 142 in the presence of appropriate dilutions of the test compound. An active inhibitor protects EAC 142 from lysis by human C3-C9; (iii) Test, Code 036 (C-Shunt inhibitor) - In this test human erythrocytes rendered fragile are lysed in autologous serum via the shunt pathway activated by cobra venom factor in the presence of appropriate dilutions of the test compound. Inhibition of the shunt pathway results in failure of lysis; (iv) Forssman Vasculitis Test -- Here, the well known complement dependent lesion, Forssman vasculitis, is produced in guinea pigs by intradermal injection of rabbit anti-Forssman antiserum. The lesion is measured in terms of diameter, edema and hemorrhage and the extent to which a combined index of these is inhibited by prior intraperitoneal injection of the test compound at 200 mg/kg is then reported, unless otherwise stated; (v) Forssman Shock Test -- Lethal shock is produced in guinea pigs by an i.v. injection of anti-Forssman antiserum and the harmonic mean death time of treated guinea pigs is compared with that of simultaneous controls; (vi) Complement Level Reduction Test - In this test, the above dosed guinea pigs, or others, are bled for serum and the complement level is determined in undiluted serum by the capillary t3be method of U.S. Pat. No. 3,876,376 and compared to undosed control guinea pigs; and (vii) Cap 50 Test -- Here, appropriate amounts of the test compound are added to a pool of guinea pig serum in vitro, after which the undiluted serum capillary tube assay referred to above is run. The concentration of compound inhibiting 50% is reported.
With reference to Table I, guinea pigs weighing about 300 g were dosed intravenously (i.v.) or intraperitoneally (i.p.) with 200 mg/kg of the test compound dissolved in saline and adjusted to pH 7-8. […] Percent inhibition was calculated by comparison with simultaneous controls. […]

Assay [5] deals with complement system. The note with it: literature reports; cited from earlier work.
The conditions of assay [6]: New England Journal of Medicine, 286, 808-812 (1972); cited from earlier work.

Counter-ions that a name gives are not always drawn. Like-named read-outs stand apart in the source and are kept apart here.

As to `O=C(O)c1cc(NS(=O)(=O)c2ccc3c(c2)S(=O)(=O)N(c2cc(C(=O)O)cc(C(=O)O)c2)S(=O)(=O)c2cc(S(=O)(=O)Nc4cc(C(=O)O)cc(C(=O)O)c4)ccc2-3)cc(C(=O)O)c1` [5,5'-{[6-(3,5-Dicarboxyphenyl)dibenzo[d,f][1,3,2]-dithiazepine-3,9-diyl]bis(sulfonylimino)}diisophthalic acid hexasodium salt S,S,S',S'-tetroxide], the “C1 026* Wells” value in assay [1] was “+5 Wells”. The “Shunt Inhibition 036* Wells” value in assay [2] is recorded as “+3 Wells”. In assay [3], the “C-Late 035* Wells” value is reported as “N”. The inhibition (in general, the change of the read-out against control, counted positive when it falls) at 200 mg/kg in assay [4] (0.5 h, 30 min, read-out: In Vivo Activity (Guinea Pig) % Inhibition, Intraperitoneal, 30 minutes) was -23%; in assay [4] (1 h, 60 min, read-out: In Vivo Activity (Guinea Pig) % Inhibition, Intraperitoneal, 60 minutes), -57%; in assay [4] (2 h, 120 min, read-out: In Vivo Activity (Guinea Pig) % Inhibition, Intraperitoneal, 120 minutes) it was -42%.
As to `Cc1ccc(C(=O)Nc2ccc(S(=O)(=O)O)c3cc(S(=O)(=O)O)cc(S(=O)(=O)O)c23)cc1NC(=O)c1cccc(NC(=O)Nc2cccc(C(=O)Nc3cc(C(=O)Nc4ccc(S(=O)(=O)O)c5cc(S(=O)(=O)O)cc(S(=O)(=O)O)c45)ccc3C)c2)c1` [Suramin], the “anticomplementary effect / inhibition of the complement system” value (“anticomplementary effect / inhibition” for short) in assay [5] is on record as “competitive inhibitor of the complement system”.
`Nc1ccc2cc(S(=O)(=O)O)cc(O)c2c1N=Nc1ccc(NC(=O)Nc2ccc(N=Nc3c(N)ccc4cc(S(=O)(=O)O)cc(O)c34)c(S(=O)(=O)O)c2)cc1S(=O)(=O)O` [chlorazol fast pink, 3,3'-ureylenebis-[6-(2-amino-8-hydroxy-6-sulfo-1-naphthylazo)] benzenesulfonic acid, tetrasodium salt]: the “anticomplementary effect / inhibition” value in assay [5] is listed as “anticomplementary effect”.
As for `NCCCCCC(=O)O` [epsilon-aminocaproic acid], the “use in the treatment of hereditary angioneurotic edema” value in assay [6] was “used with success”.
On to `NC[C@H]1CC[C@H](C(=O)O)CC1` [tranexamic acid], for which the “use in the treatment of hereditary angioneurotic edema” value in assay [6] is given as “used with success”.
Consider heparin, for which the “anticomplementary effect / inhibition” value in assay [5] is listed as “anticomplementary effect”.
